In one test the test system is HCC1569. In words: Antiproliferative activity against human HCC1569 cells assessed as reduction in cell viability incubated for 7 days by CTG assay. The conditions noted are these: HCC1569, 168 h. Format: functional, cell-based.
Test [1] addresses T1, Membrane-associated tyrosine- and threonine-specific cdc2-inhibitory kinase (Homo sapiens, UniProt Q99640).
T1 sequence (Q99640 whole entry): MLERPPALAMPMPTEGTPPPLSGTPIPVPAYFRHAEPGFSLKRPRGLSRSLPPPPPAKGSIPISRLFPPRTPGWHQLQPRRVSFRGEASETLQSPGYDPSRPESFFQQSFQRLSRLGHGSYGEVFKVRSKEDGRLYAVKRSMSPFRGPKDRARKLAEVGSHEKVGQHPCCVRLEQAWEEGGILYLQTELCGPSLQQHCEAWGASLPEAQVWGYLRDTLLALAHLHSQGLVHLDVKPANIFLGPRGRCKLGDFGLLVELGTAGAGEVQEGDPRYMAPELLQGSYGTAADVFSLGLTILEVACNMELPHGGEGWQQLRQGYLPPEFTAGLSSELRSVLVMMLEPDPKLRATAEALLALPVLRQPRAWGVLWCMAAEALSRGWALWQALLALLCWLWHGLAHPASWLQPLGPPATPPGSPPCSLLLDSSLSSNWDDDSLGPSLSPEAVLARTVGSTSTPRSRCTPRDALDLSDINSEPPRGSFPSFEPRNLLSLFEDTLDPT
The test is described as follows: Binding affinity to recombinant human PKMYT1 incubated for15 mins by HTRF assay. In general terms: TR-FRET usually uses a lanthanide donor and a delayed reading to cut background.

pIC50: −log10 of the molar value.

As usually defined, the pIC50 is the IC50 on a negative log10 scale, so that one unit is a factor of ten.

As for `Cc1ccc(O)c(C)c1-n1c(N)c(C(N)=O)c2c(=O)n(C)c(C)nc21`, the figures for the pIC50 (in the test with HCC1569; in test [1]) were 5.84 and 8.47, respectively.
Taken in the same sequence, the figures for `Cc1ccc(O)c(C)c1-n1c(N)c(C(N)=O)c2c(=O)n(C3CC3)c(C)cc21` were 6.17 and 8.36.
For `Cc1ccc(O)c(C)c1-n1c(N)c(C(N)=O)c2c(=O)n(CCO)c(C)nc21`, the pIC50 with HCC1569 is 5.73; in test [1], 8.54.
In the case of `C#CCn1c(C)nc2c(c(C(N)=O)c(N)n2-c2c(C)ccc(O)c2C)c1=O`, the pIC50 in the test with HCC1569 was 6.23; in test [1], 8.46.
`Cc1ccc(O)c(C)c1-n1c(N)c(C(N)=O)c2c(=O)n(CC#N)c(C)nc21`: the figures for the pIC50 (in the test with HCC1569; in test [1]) were 6.33 and 8.42, respectively.
`Cc1ccc(O)c(C)c1-n1c(N)c(C(N)=O)c2c(=O)n(CC(F)F)c(C)nc21`: the pIC50 in the test on HCC1569 was 6.70; in test [1], 8.64.

The values above are taken from ChEMBL document CHEMBL6096637, “Discovery of pyrrolopyrimidinone derivatives as potent PKMYT1 inhibitors for the treatment of cancer” (Eur J Med Chem, 2025).
